Where “and” joins values, the source holds several entries; their conditions need not be identical. Identical values can stand only once.
Key:
[1] = tested on: lenalidomide resistant H929 subclones; test: Proliferation and viability by 7-AAD staining; format: cell-based
Experimental: The Revlimid-resistant or -sensitive cell lines were treated with test compounds for 5 days, and then cell proliferation and viability were assessed by 7-aminoactinomycin D (7-AAD) staining.
CRBN ubiquitination was measured in HEK293T cells, which were transfected with an amino-terminal His-biotin-tagged CRBN construct, then preincubated with compounds for one hour followed by treatment with the MG132 proteasome inhibitor (to arrest degradation of ubiquitinated proteins). Cells were lysed and processed to measure CRBN ubiquitination by SDS-PAGE and immunoblot analysis using an anti-ubiquitin antibody. Cell proliferation studies were conducted in lenalidomide-sensitive and refractory multiple myeloma cells. […] T-cell costimulation was measured in purified primary human T cells stimulated using immobilized anti-CD3 antibody in cell culture for 2 days, and cytokine secretion was measured by ELISA.

[2] = Pharmacokinetics in monkey; format: in vivo; conditions: >99.5% S-enantiomer, <0.5% R-enantiomer

IC50 ([1]; Homo sapiens, NCI-H929, 120 h, read-out: IC50 for inhibition of proliferation): 510 to 1580 nM
F ([2]; 1 mpk po): 20%
AUC ([2]; plasma, 0.5 mg/kg, 0.5 mpk iv): 490 ng·h/mL and 1.1 µM·h
clearance ([2]; plasma, 0.5 mg/kg, 0.5 mpk iv, read-out: CLp): 8.4 mL/min/kg
Vd ([2]; plasma, 0.5 mg/kg, 0.5 mpk iv, read-out: Vss): 1.2 L/kg
AUC ([2]; plasma, 1 mg/kg, 1 mpk po): 390 ng·h/mL and 0.87 µM·h
Cmax ([2]; plasma, 1 mg/kg, 1 mpk po): 140 ng/mL and 310 nM
SMILES: O=C1CC[C@H](N2Cc3c(OCc4ccc(CN5CCOCC5)cc4)cccc3C2=O)C(=O)N1 [Compound I-S, (S)-3-(4-((4-(morpholinomethyl)benzyl)oxy)-1-oxoisoindolin-2-yl)piperidine-2,6-dione]
activity against Revlimid-resistant cell lines [1]: active

Source: patent US20260007679A1, “METHODS OF TREATING CANCER USING 3-(4-((4-(MORPHOLINOMETHYL)BENZYL)OXY)-1-OXOISOINDOLIN-2-YL)PIPERIDINE-2,6-DIONE” (Celgene Corporation, priority 2012, published 2026)
